Data as given in PubChem BioAssay (NCI).
Several values for one entry are separate records, joined by “and”; a condition that tells them apart may be missing. Equal values may be shown once.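 1) Cells in 96-well plates. 2) Compound, 48 h, 5 concentrations. 3) Linear interpolation between surrounding doses. 4) Unreached endpoint = highest concentration. GI50 = concentration required for 50% inhibition of growth. Definition used: TGI = concentration required for complete inhibition of growth.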

Columns and labels:
Assay in all cases: NCI anticancer screen, dose series, 48 h
T-47D breast = test system: T-47D breast
MDA-N = test system: MDA-N
DMS 114 small cell lung = test system: DMS 114 small cell lung
M19-MEL melanoma = test system: M19-MEL melanoma
DMS 273 small cell lung = test system: DMS 273 small cell lung
HOP-18 NSCLC = test system: HOP-18 NSCLC
XF 498 CNS = test system: XF 498 CNS
KM20L2 colon = test system: KM20L2 colon

SMILES	GI50 (T-47D breast)	TGI (T-47D breast)	further results
CC[C@]12C=CCN3CC[C@@]4(c5ccc(OC)cc5N(C)[C@H]4[C@@](O)(C(=O)OC)[C@@H]1OC(=O)CCC[P+](c1ccccc1)(c1ccccc1)c1ccccc1)[C@@H]32	0.29 µM and 0.224 µM	6.56 µM and 0.977 µM	–
CCCCCCCCCC/C=C/CC(=O)SCCNC(=O)CCNC(=O)[C@@H](O)C(C)(C)COP(=O)(O)OP(=O)(O)OCC1OC(n2cnc3c(N)ncnc32)C(O)C1OP(=O)(O)O (stereo not given in full)	–	> 10 µM	TGI (MDA-N): > 10 µM
C=C(C=O)C1CCC2(C(=O)O)CCC3(C)C(CCC4C5(C)CCC(O)C(C)(C)C5CCC43C)C12 (stereo not given)	5.19 µM	34.1 µM	–
O=C1NC(=Nc2ccccc2)S/C1=C\c1ccc2ncccc2c1	12.3 µM	> 25 µM	–
COc1ccc2c(c1)CCC1C2CC[C@@]2(C)C1CC1=CC(COC(C)=O)C3C(=O)c4ccccc4C(=O)C3C12 (stereo not given in full)	90.6 µM	> 100 µM	–
CCN1CCN(c2ccc(Nc3cc(N(C)C(=O)Nc4c(Cl)c(OC)cc(OC)c4Cl)ncn3)cc2)CC1	2.51 µM	6.49 µM	–
CNCCNc1c2c(c(NCCNC)c3c(CN(C)C)c[nH]c13)C(=O)c1ccccc1C2=O	32 µM	> 57.1 µM	–
CC(=O)OC1Oc2ccccc2-c2oc(=O)c(-c3cc(=O)oc4cc(O)ccc34)cc21 (stereo not given)	12.1 µM	48.4 µM	–
Cc1ccc(S(=O)(=O)NCC2CCCCC2=O)cc1 (stereo not given)	–	–	TGI (DMS 114 small cell lung): > 100 µM; TGI (M19-MEL melanoma): > 100 µM; TGI (DMS 273 small cell lung): > 100 µM; TGI (HOP-18 NSCLC): > 100 µM; TGI (XF 498 CNS): > 100 µM; TGI (KM20L2 colon): > 100 µM
Cc1c2cccnc2c(C)c2c1c1cc(CO)ccc1n2C	0.989 µM	4.97 µM	–
Cc1ccc(C(SCC(N)C(=O)O)(c2ccccc2)c2ccc(C)cc2)cc1 (stereo not given)	0.333 µM	16.9 µM	–
CCOC(=O)Oc1c(OC)cc(C(=O)NC2CCc3cc(OC)c(OC)c(OC)c3-c3ccc(SC)c(=O)cc32)cc1OC (stereo not given)	–	–	GI50 (DMS 114 small cell lung): < 0.007 µM; TGI (DMS 114 small cell lung): 0.0556 µM and < 0.007 µM; GI50 (M19-MEL melanoma): < 0.007 µM; TGI (M19-MEL melanoma): > 70 µM; TGI (DMS 273 small cell lung): > 70 µM; TGI (XF 498 CNS): 0.896 µM; GI50 (KM20L2 colon): 0.0119 µM
CC(C)(C)OC(=O)NCC(=O)OCc1ccccc1	–	–	TGI (DMS 114 small cell lung): > 100 µM; TGI (M19-MEL melanoma): > 100 µM; TGI (DMS 273 small cell lung): > 100 µM; TGI (XF 498 CNS): > 100 µM
C/C1=C\CC[C@@]2(C)O[C@@H]2[C@H]2OC(=O)[C@@H](CN(C)C)[C@@H]2CC1	39.4 µM	> 100 µM	–
COc1cc(Nc2cn[nH]c2-c2ccc(Cl)cc2)cc(OC)c1OC	4.56 µM	56 µM	–
O=[n+]1c2c(n([O-])c3ccccc31)CCCCCCCCCC2	–	–	TGI (M19-MEL melanoma): > 100 µM; TGI (DMS 273 small cell lung): > 100 µM; TGI (XF 498 CNS): > 100 µM; TGI (KM20L2 colon): > 100 µM
COc1ncnc(C2CC2)c1-c1ncc2cnn(Cc3ccc(-c4nc(C(F)(F)F)cn4C(C)C)cc3)c2n1	10.6 µM	85.2 µM	–
CC(=O)O.CC(=O)O.CC(=O)O.CC(=O)O.CC(=O)O.CC(=O)O.O.[Ti].[Ti]	–	–	GI50 (DMS 273 small cell lung): > 100 µM; TGI (DMS 273 small cell lung): > 100 µM; GI50 (HOP-18 NSCLC): > 100 µM; TGI (HOP-18 NSCLC): > 100 µM; GI50 (KM20L2 colon): > 100 µM; TGI (KM20L2 colon): > 100 µM
Cn1cc(C2=C(c3ccc4ccccc4c3)C(=O)NC2=O)c2ccccc21	> 25 µM	> 25 µM	–

SMILES	GI50 (T-47D breast)	TGI (T-47D breast)	further results
Ic1ccc(Nc2nc3nonc3nc2Nc2ccc(I)cc2)cc1	0.179 µM	> 91.1 µM	–
CNCCCn1cc(C2=C(c3cn(C)c4ccccc34)C(=O)NC2=O)c2ccccc21	5.66 µM	15.1 µM	–
CCC[CH2][Sn]([CH2]CCC)([CH2]CCC)[O]C(=O)CC	0.166 µM	0.385 µM	–
O=C(Nc1ccc(OS(=O)(=O)c2ccccc2)cc1)C12CC3CC(CC(C3)C1)C2	3.57 µM	> 100 µM	–
CS(=O)(=O)N/N=C/CN1C(=O)c2ccccc2C1=O	–	–	TGI (DMS 114 small cell lung): > 100 µM; TGI (M19-MEL melanoma): > 100 µM; TGI (DMS 273 small cell lung): > 100 µM; TGI (HOP-18 NSCLC): > 100 µM; TGI (XF 498 CNS): > 100 µM; TGI (KM20L2 colon): > 100 µM
CCCCOC(=O)C1C(c2ccc(Cl)cc2)NC(c2ccc(Cl)cc2)C(C(=O)OCCCC)S1(=O)=O (stereo not given)	–	–	TGI (DMS 114 small cell lung): > 100 µM; TGI (M19-MEL melanoma): > 100 µM; TGI (DMS 273 small cell lung): > 100 µM; TGI (HOP-18 NSCLC): > 100 µM; TGI (XF 498 CNS): > 100 µM; TGI (KM20L2 colon): > 100 µM
O=Cc1cc2c(cc1-c1c(C=O)ccc3c1OCO3)OCO2	–	> 10 µM	TGI (MDA-N): > 10 µM
COCCOc1cc(F)c2c(Nc3ccc(NC(=O)Cn4cc(C(C)C)nn4)cc3)ncnc2c1	8.11 µM	> 100 µM	–
C[C@H]1c2cccc(O)c2C(O)=C2C(=O)[C@]3(O)C(O)=C(C(N)=O)C(=O)[C@@H](N(C)C)[C@@H]3[C@@H](O)[C@@H]21	3.28 µM	34.8 µM	–
Cc1ccc(Cl)cc1Nc1nc(C(F)(F)F)ccc1C(=O)N1CCN(c2ccc(F)cc2)CC1	6.25 µM	42.6 µM	–
COc1ccc(NC(=O)CCc2cc(-c3ccc(O)c(OC)c3)nc(NC#N)n2)cc1	–	–	TGI (DMS 114 small cell lung): > 100 µM; TGI (M19-MEL melanoma): > 100 µM; TGI (HOP-18 NSCLC): > 100 µM; TGI (KM20L2 colon): > 100 µM
COc1ccc(C(=O)c2cc(OC)c(C)c(OC)c2)cc1OC(=O)CCl	3.26 µM	> 79 µM	–
COc1cc(C(=O)c2cc(C)c3[nH]c4ccc(Cl)cc4c3c2C)cc(OC)c1OC	1.84 µM	39.3 µM	–
Cc1nnc(S(=O)(=O)c2ccc(N=Nc3c(N)nc(N)nc3N)cc2)s1	–	> 100 µM	TGI (MDA-N): > 100 µM
CC(C)c1ccc(Nc2ccc3c(OCCCN4CCN(C)CC4)cccc3n2)cc1	12.9 µM	31.6 µM	–
Clc1coc2nc3ccccc3c(Nc3ccc4c(c3)OCO4)c12	13.4 µM	> 100 µM	–
COC(=O)C1=C(c2ccc3c(c2)OCO3)O[C@H](c2cc(OC)c(OC)c(OC)c2)[C@H]1COC(C)=O	–	–	TGI (DMS 114 small cell lung): 5.8 µM; TGI (M19-MEL melanoma): 27.9 µM; TGI (DMS 273 small cell lung): > 100 µM; TGI (HOP-18 NSCLC): 60.9 µM; TGI (XF 498 CNS): 36.8 µM; TGI (KM20L2 colon): 8.72 µM
CCN(CC)CCOc1ccc(/C=C(\C#N)c2ccc(OCCN(CC)CC)cc2)cc1	–	–	TGI (DMS 114 small cell lung): 23.2 µM; TGI (M19-MEL melanoma): 28.9 µM; TGI (DMS 273 small cell lung): 26.5 µM; TGI (HOP-18 NSCLC): 57.3 µM; TGI (XF 498 CNS): 29.3 µM; TGI (KM20L2 colon): 4.5 µM
Cn1c(=O)c2c(nc(Nc3cc(=O)[nH]c(=O)[nH]3)n2Cc2ccccc2)n(C)c1=O	> 100 µM	> 100 µM	–

SMILES	GI50 (T-47D breast)	TGI (T-47D breast)	further results
C=C(C)[C@@]12OC3(/C=C/C=C/CCCCC)O[C@@H]1[C@@H]1[C@@H]4O[C@]4(CO)[C@@H](O)[C@]4(O)C(=O)C(C)=C[C@H]4[C@@]1(O3)[C@H](C)[C@H]2OC(=O)c1ccccc1	2.2 µM	7.25 µM	–
C[As](C)SC1OC(CO)C(O)C1O (stereo not given)	3.21 µM	> 100 µM	–
CC1OC2CC(=O)OC2C2=C1C(=O)c1c(O)cccc1C2=O (stereo not given)	0.106 µM	0.351 µM	–
O=c1c2ccccc2[se]n1-c1cccnc1	–	57.3 µM	TGI (MDA-N): 52.9 µM
O=S(=O)(Nc1cc(F)cc(Cl)c1)c1ccc(-c2cnc(C3CC3)o2)cc1	1.7 µM	33.5 µM	–
CC(SC(C)C(=O)N/N=C/c1cccc(Cl)c1)C(=O)N/N=C\c1cccc(Cl)c1 (stereo not given)	23 µM	93.8 µM	–
C=C(F)C(=O)N1CCN(c2nc(OC[C@@H]3CCCN3C)nc3c2CCN(c2cccc4cccc(Cl)c24)C3)C[C@@H]1CC#N	1.24 µM	3.07 µM	–
COc1ccc(OC)c(NC(=O)C(=O)NNC(=O)c2sc(NNC(C)=O)nc2C)c1	–	–	TGI (M19-MEL melanoma): > 100 µM; TGI (XF 498 CNS): 85.3 µM; TGI (KM20L2 colon): > 100 µM
CCOC(=O)/C=C/C(C(=O)/C=C/c1ccc(OC2CCCCO2)c(OC)c1)=C(O)\C=C\c1ccc(OC2CCCCO2)c(OC)c1 (stereo not given)	15.1 µM	60.3 µM	–
Oc1[nH]c2ccccc2c1N=Nc1ccccc1Cl	–	> 100 µM	TGI (MDA-N): > 100 µM
COC(=O)C1=C(C)N(NC(=O)c2ccccc2)C(C)(O)C12CCOC2=O (stereo not given)	–	–	TGI (DMS 114 small cell lung): > 100 µM; TGI (DMS 273 small cell lung): > 100 µM; TGI (HOP-18 NSCLC): > 100 µM; TGI (XF 498 CNS): > 100 µM; TGI (KM20L2 colon): > 100 µM
Oc1ccc(Cl)cc1Cc1cc(Cl)cc(Cl)c1O	2.47 µM	8.68 µM	–
Cc1ccc(SC(C)/C=C/NNC2=NC(c3ccccc3)C(c3ccccc3)=NN2)cc1 (stereo not given)	–	–	TGI (DMS 114 small cell lung): > 100 µM; TGI (M19-MEL melanoma): > 100 µM; TGI (DMS 273 small cell lung): > 100 µM; TGI (HOP-18 NSCLC): > 100 µM; TGI (KM20L2 colon): 27.6 µM
S=C(N/N=C/c1ccco1)NC12CC3CC(CC(C3)C1)C2	–	–	TGI (DMS 114 small cell lung): > 100 µM; TGI (M19-MEL melanoma): > 100 µM; TGI (DMS 273 small cell lung): > 100 µM; TGI (HOP-18 NSCLC): > 100 µM; TGI (XF 498 CNS): > 100 µM; TGI (KM20L2 colon): > 100 µM
CC(C)=C[C@@H]1C[C@H](C)[C@H]2CC[C@H](C)C3=C2[C@](O)(OC3=O)[C@]1(C)O	> 100 µM	> 100 µM	–
C#Cc1cccc(Nc2ncnc3cc(OC)c(OCCCCCCC(=O)NO)cc23)c1	0.0465 µM	0.495 µM	–
COC(=O)/C=C/c1cc(O)c2oc(-c3ccc(O)c(O)c3)c(C(=O)OC)c2c1	0.577 µM	9.48 µM	–
CCCCc1c(OC)cc(O)c2c1C(=O)c1[nH]c(C(=O)O)c(O)c(=O)c1C2=O	–	> 100 µM	TGI (MDA-N): > 100 µM
COc1ccc(N2C(=O)C(c3ccccc3)(c3ccccc3)C23C(=O)N(C)c2ccccc23)cc1 (stereo not given)	> 100 µM	> 100 µM	–
